Source: patent US20120070445A1, “BRAIN-DERIVED GONADOTROPINS AND COGNITION” (priority 2006, published 2012)

How the values were obtained:
C57/B6 female mice [1] = experiment: Y-maze in ovariectomized mice with or without estrogen replacement; type: in vivo; conditions: OVX mice
[2] = Body weight 3 months post-surgery + replacement + drug treatment
Description: In addition we added a SHAM ovariectomized group that received saline and a placebo pallet (n=10). During the last two weeks of the study all animals have been tested for Y-maze and Morris Water Maze performance.

C57/B6 female mice [3] = experiment: Morris Water Maze in ovariectomized mice (training and probe trial); type: in vivo; conditions: for length of time taken to locate the invisible platform across days (rescue of OVX-associated cognitive decline): OVX mice, three training days
Experimental: (Significance indicated by: *=P+S vs E+S; #=P+S vs P+L; $=P+S vs SHAM; %=P+S vs E+L; at p<0.05).
Additionally, to further determine the memory function and training success in the animals we measured the capacity of the animals to retain the information learned using a probe trial. In this regard, at the end of the last day of training we removed the platform and let the animals swim for 1 minute.

Tg2576 mice [4] = conditions: APP transgenic mice, recent study; cited from earlier work
Aβ [5] = experiment: Hippocampal Aβ burden (% area stained) in Tg2576 mice; type: in vivo; conditions: vs saline-treated, p<0.05
Description: Scale bar, 200 μm. […] In this initial study we used aged animals to 1) circumvent the estrogen issue, since aged mice, like humans show estropause and 2) to examine the effects of LH ablation once the disease is well established.

Tg2576 mice [6] = experiment: Y-maze performance in aged Tg2576 mice; type: in vivo; conditions: 21 month old Tg2576 female mice, 3 months treatment vs placebo/saline, p<0.01
AD patients = conditions: high doses, completed phase II trial; cited from earlier work
LH = experiment: Serum LH and pituitary LHβ mRNA after leuprolide acetate; type: in vivo, Tg2576 mice
Aβ [7] = conditions: APP transgenic mice, recent study; cited from earlier work

Row | Molecule | Y-maze performance, estrogen-replaced vs placebo replaced (C57/B6 female mice [1]; saline-treated, t=1.841, p=0.07) | Body weight ([2]; OVX + Estrogen, Saline, 3 months post-surgery) | body weight of OVX+estrogen replaced group compared with SHAM ([2]; irrespective of drug treatment) | length of time taken to locate the invisible platform across days (rescue of OVX-associated cognitive decline) (C57/B6 female mice [3]) | Y-maze performance (Tg2576 mice [4]) | Aβ burden, % area stained in the entire hippocampus (Aβ [5]) | Y-maze performance (C57/B6 female mice [1]; leuprolide acetate 7.5 mg/kg for 3 months vs saline, specific to placebo replaced group (p=0.005)) | cognitive decline (Y-maze % alternations, change from baseline) (Tg2576 mice [6]) | cognitive impairment and activities of daily living (AD patients) | serum LH (LH; Tg2576 mice, vs saline, P<0.02) | LHβ mRNA expression in the pituitary (LH; mice, 6 and 8 week treatment vs saline) | amyloid-β load in the hippocampus (Aβ [7]) | learning rate in Morris Water Maze (C57/B6 female mice [3]; independent of replacement regimen, vs saline, p=0.027) | latency to enter NE quadrant, probe trial (C57/B6 female mice [3]; regardless of replacement regimen, 0.041) | distance swam in NE quadrant, probe trial (C57/B6 female mice [3]; regardless of replacement regimen, p=0.003) | number of platform crossings, probe trial (C57/B6 female mice [3]; regardless of replacement regimen, p=0.004) | latency to enter platform location, probe trial (C57/B6 female mice [3]; regardless of replacement regimen, p=0.005)
1 | Estrogen | strong trend | 23.5 | not different from the SHAM operated group | rescued by estrogen replacement |  |  |  |  |  |  |  |  |  |  |  |  | 
2 | CCNC(=O)[C@@H]1CCCN1C(=O)[C@H](CCCNC(=N)N)NC(=O)[C@H](CC(C)C)NC(=O)[C@@H](CC(C)C)NC(=O)[C@H](Cc1ccc(O)cc1)NC(=O)[C@H](CO)NC(=O)[C@H](Cc1c[nH]c2ccccc12)NC(=O)[C@H](Cc1c[nH]cn1)NC(=O)[C@@H]1CCC(=O)N1 [leuprolide acetate] |  |  |  | as effective as estrogen in rescuing OVX-associated cognition decline | improves Y-maze performance | significantly lower | significantly improved Y-maze performance | significantly attenuates cognitive decline | stabilization in cognitive impairment and activities of daily living | significant decline in serum LH | clear decrease in the expression of LHβ mRNA | decreases amyloid-β load | learned at a faster rate | entered that quadrant earlier | swam longer distances | crossed it more times | crossed the invisible platform region more earlier
